Laboratory results: ChEMBL document CHEMBL1128276, “Quinazoline antifolate thymidylate synthase inhibitors: replacement of glutamic acid in the C2-methyl series” (J Med Chem, 1995)

Columns and labels:
L1210 [1] = test: Inhibition of L1210 cell growth; format: functional, cell-based; conditions: Mus musculus
Thymidylate synthase [2] = target: T1, Thymidylate synthase (Mus musculus, UniProt P07607); test: Inhibition of thymidylate synthase purified from mouse L1210 leukemia cells that overproduce thymidylate synthase (TS); format: cell-free
L1210 (1565) [3] = test: Concentration to inhibit cell growth was measured on L1210:1565 cell line; format: functional, cell-based; conditions: Mus musculus
L1210 (1565) [4] = test: Relative resistance was measured in L1210:1565 cell line; format: functional, cell-based; conditions: Mus musculus
Thymidylate synthase [5] = target: T1, Thymidylate synthase; test: Ability to inhibit Thymidylate synthase purified from mouse L1210 leukemia cells that overproduce thymidylate synthase (TS)
L1210 [6] = test: Ability to inhibit cell growth was measured on L1210 cells(horse serum); format: functional, cell-based; conditions: Mus musculus

T1 sequence (P07607 whole entry): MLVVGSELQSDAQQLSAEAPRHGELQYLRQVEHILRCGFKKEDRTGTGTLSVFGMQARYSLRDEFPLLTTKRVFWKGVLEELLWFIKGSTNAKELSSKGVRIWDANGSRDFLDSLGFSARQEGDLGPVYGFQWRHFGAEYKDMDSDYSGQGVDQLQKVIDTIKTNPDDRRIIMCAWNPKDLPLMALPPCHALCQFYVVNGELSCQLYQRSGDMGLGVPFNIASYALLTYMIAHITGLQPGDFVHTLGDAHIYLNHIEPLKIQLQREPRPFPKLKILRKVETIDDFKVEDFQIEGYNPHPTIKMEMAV

Compound | IC50 (L1210 [1]) [nM] | IC50 (Thymidylate synthase [2]) [nM] | IC50 (L1210 (1565) [3]) [nM] | Relative resistance (L1210 (1565) [4]) [dimensionless ratio] | IC50 (Thymidylate synthase [5]) [nM] | IC50 (L1210 [6]) [nM]
C#CCN(Cc1ccc2nc(C)nc(O)c2c1)c1ccc(C(=O)NCc2ccoc2)cc1 | 5500 | 1380 | – | – | – | –
C#CCN(Cc1ccc2nc(C)nc(O)c2c1)c1ccc(C(=O)NCc2nccs2)cc1 | 6000 | – | 5000 | 0.83 | 760 | –
C#CCN(Cc1ccc2nc(C)nc(O)c2c1)c1ccc(C(=O)NCc2cccc(C#N)c2)cc1 | – | 280 | 500 | 0.33 | – | 1500
C#CCN(Cc1ccc2nc(C)nc(O)c2c1)c1ccc(C(=O)NCc2ccccc2[N+](=O)[O-])cc1 | – | 320 | 7500 | 4.2 | – | 1800
C#CCN(Cc1ccc2nc(C)nc(O)c2c1)c1ccc(C(=O)N[C@H](CCC)C(=O)O)cc1 | 2500 | – | 34000 | – | – | –
C#CCN(Cc1ccc2nc(C)nc(O)c2c1)c1ccc(C(=O)N[C@H](CCC(=O)O)C(=O)O)cc1 | 90 | – | 8200 | – | – | –
C#CCN(Cc1cc2c(O)nc(C)nc2cc1C)c1ccc(C(=O)NCc2nccs2)c(F)c1 | 660 | – | 500 | 0.76 | 100 | –
C#CCN(Cc1ccc2nc(C)nc(O)c2c1)c1ccc(C(=O)NCC(=O)O)cc1 | > 100000 | 520 | – | – | – | –
C#CCN(Cc1cc2c(O)nc(C)nc2cc1C)c1ccc(C(=O)N[C@@H](C(=O)O)C(C)(C)C)c(F)c1 | 880 | – | 5280 | 6 | 7 | –
C#CCN(Cc1ccc2nc(C)nc(O)c2c1)c1ccc(C(=O)NCc2ccccc2)cc1 | 4000 | 720 | – | – | – | –
C#CCN(Cc1cc2c(O)nc(C)nc2cc1C)c1ccc(C(=O)NCc2cccc([N+](=O)[O-])c2)c(F)c1 | 210 | 44 | 180 | 0.86 | – | –
C#CCN(Cc1ccc2nc(C)nc(O)c2c1)c1ccc(C(=O)N[C@H](C)C(=O)O)cc1 | 25000 | 150 | – | – | – | –
C#CCN(Cc1ccc2nc(C)nc(O)c2c1)c1ccc(C(=O)N[C@@H](C(=O)O)c2cccc([N+](=O)[O-])c2)cc1 | 9000 | 24 | 13000 | 1.4 | – | –
C#CCN(Cc1ccc2nc(C)nc(O)c2c1)c1ccc(C(=O)NCc2ccc(Cl)cc2)cc1 | – | 7700 | – | – | – | 70000
C#CCN(Cc1ccc2nc(C)nc(O)c2c1)c1ccc(C(=O)NCc2ccc([N+](=O)[O-])cc2)cc1 | – | 320 | – | – | – | 2200
C#CCN(Cc1cc2c(O)nc(C)nc2cc1C)c1ccc(C(=O)N[C@@H](C(=O)O)C(C)C)c(F)c1 | 1700 | – | 2910 | 1.71 | 6 | –
C#CCN(Cc1ccc2nc(C)nc(O)c2c1)c1ccc(C(=O)NCc2cccc(C(=O)O)c2)cc1 | – | 270 | – | – | – | 85000
C#CCN(Cc1cc2c(O)nc(C)nc2cc1C)c1ccc(C(=O)NCc2ccccn2)c(F)c1 | 620 | – | 520 | 0.84 | 114 | –
C#CCN(Cc1cc2c(O)nc(C)nc2cc1C)c1ccc(C(=O)N[C@H](CCC(=O)O)C(=O)O)c(F)c1 | 80 | 9 | 5920 | 74 | – | –
C#CCN(Cc1ccc2nc(C)nc(O)c2c1)c1ccc(C(=O)NCc2cscn2)cc1 | 8000 | – | 4800 | 0.6 | 1720 | –
C#CCN(Cc1ccc2nc(C)nc(O)c2c1)c1ccc(C(=O)NCc2ccco2)cc1 | – | 1420 | – | – | – | 6000

Compound | IC50 (L1210 [1]) [nM] | IC50 (Thymidylate synthase [2]) [nM] | IC50 (L1210 (1565) [3]) [nM] | Relative resistance (L1210 (1565) [4]) [dimensionless ratio] | IC50 (Thymidylate synthase [5]) [nM] | IC50 (L1210 [6]) [nM]
C#CCN(Cc1ccc2nc(C)nc(O)c2c1)c1ccc(C(=O)NCc2nc(C)cs2)cc1 | 1700 | – | 1600 | 0.91 | 770 | –
C#CCN(Cc1ccc2nc(C)nc(O)c2c1)c1ccc(C(=O)NCC)cc1 | 7200 | 22900 | – | – | – | –
C#CCN(Cc1ccc2nc(C)nc(O)c2c1)c1ccc(C(=O)N[C@H](Cc2ccccc2)C(=O)O)cc1 | 41000 | 170 | – | – | – | –
C#CCN(Cc1cc2c(O)nc(C)nc2cc1C)c1ccc(C(=O)NCc2cccc(C#N)c2)c(F)c1 | 230 | – | 90 | 0.38 | 48 | –
C#CCN(Cc1ccc2nc(C)nc(O)c2c1)c1ccc(C(=O)NCCC)cc1 | 8600 | 2260 | – | – | – | –
C#CCN(Cc1cc2c(O)nc(C)nc2cc1C)c1ccc(C(=O)N[C@@H](C(=O)O)c2cccc([N+](=O)[O-])c2)c(F)c1 | 2450 | 4.4 | 1250 | 0.51 | – | –
C#CCN(Cc1ccc2nc(C)nc(O)c2c1)c1ccc(C(=O)N[C@@H](C(=O)O)c2ccc(F)cc2)cc1 | 74000 | – | – | – | 89 | –
C#CCN(Cc1ccc2nc(C)nc(O)c2c1)c1ccc(C(=O)NC)cc1 | 25000 | 4200 | – | – | – | –
C#CCN(Cc1ccc2nc(C)nc(O)c2c1)c1ccc(C(=O)NCc2cncs2)cc1 | 1100 | 860 | 400 | 0.36 | – | –
C#CCN(Cc1ccc2nc(C)nc(O)c2c1)c1ccc(C(=O)N[C@@H](C(=O)O)C(C)(C)C)cc1 | 2000 | 58 | 14000 | 7 | – | –
C#CCN(Cc1ccc2nc(C)nc(O)c2c1)c1ccc(C(=O)N[C@H](CCC(N)=O)C(=O)O)cc1 | 2200 | – | 40000 | – | – | –
C#CCN(Cc1ccc2nc(C)nc(O)c2c1)c1ccc(C(=O)N[C@@H](C(=O)O)c2cccc(O)c2)cc1 | 90000 | – | – | – | 160 | –
C#CCN(Cc1ccc2nc(C)nc(O)c2c1)c1ccc(C(=O)NCc2ccccn2)cc1 | – | 450 | 5000 | 1.28 | – | 3900
C#CCN(Cc1ccc2nc(C)nc(O)c2c1)c1ccc(C(=O)Nc2ccccc2)cc1 | 11000 | 1820 | – | – | – | –
C#CCN(Cc1ccc2nc(C)nc(O)c2c1)c1ccc(C(=O)N[C@H](Cc2ccc([N+](=O)[O-])cc2)C(=O)O)cc1 | > 20000 | 42 | – | – | – | –
C#CCN(Cc1cc2c(O)nc(C)nc2cc1C)c1ccc(C(=O)NCc2cncs2)c(F)c1 | 620 | – | 240 | 0.39 | 110 | –
C#CCN(Cc1ccc2nc(C)nc(O)c2c1)c1ccc(C(=O)NCc2cccc([N+](=O)[O-])c2)cc1 | – | 110 | 400 | 0.37 | – | 1200
C#CCN(Cc1ccc2nc(C)nc(O)c2c1)c1ccc(C(=O)N[C@@H](C(=O)O)c2ccccc2)cc1 | 15000 | 34 | 30000 | 2 | – | –
C#CCN(Cc1ccc2nc(C)nc(O)c2c1)c1ccc(C(=O)N[C@@H](C(=O)O)C(C)C)cc1 | 960 | 58 | 23000 | 23 | – | –
C#CCN(Cc1ccc2nc(C)nc(O)c2c1)c1ccc(C(=O)NCc2ccsc2)cc1 | 5500 | 1460 | – | – | – | –
